Experimental data taken from PubChem BioAssay (NCI).
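Tested at 5 concentrations; 48 h exposure; 96-well plates; endpoints linearly interpolated, else capped at highest concentration. TGI denotes the concentration required for complete inhibition of growth.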

Experiments:
Assay in all cases: NCI-60 cell line screen, 48 h
OVCAR-4 ovarian = system: OVCAR-4 ovarian
SNB-75 CNS = system: SNB-75 CNS
SR leukemia = system: SR leukemia
CCRF-CEM leukemia = system: CCRF-CEM leukemia
SK-OV-3 ovarian = system: SK-OV-3 ovarian
M14 melanoma = system: M14 melanoma
UACC-62 melanoma = system: UACC-62 melanoma
SF-295 CNS = system: SF-295 CNS
KM12 colon = system: KM12 colon
HCT-15 colon = system: HCT-15 colon
SN12C renal = system: SN12C renal
SW-620 colon = system: SW-620 colon
COLO 205 colon = system: COLO 205 colon
SK-MEL-2 melanoma = system: SK-MEL-2 melanoma
LOX IMVI melanoma = system: LOX IMVI melanoma
HOP-18 NSCLC = system: HOP-18 NSCLC
TK-10 renal = system: TK-10 renal
MALME-3M melanoma = system: MALME-3M melanoma
DLD-1 colon = system: DLD-1 colon
NCI-H522 lung = system: NCI-H522 lung
OVCAR-8 ovarian = system: OVCAR-8 ovarian
ACHN renal = system: ACHN renal
NCI-H226 lung = system: NCI-H226 lung
NCI-H23 lung = system: NCI-H23 lung
UACC-257 melanoma = system: UACC-257 melanoma
SF-539 CNS = system: SF-539 CNS
K-562 leukemia = system: K-562 leukemia
RPMI-8226 leukemia = system: RPMI-8226 leukemia
A498 renal = system: A498 renal
NCI-H460 lung = system: NCI-H460 lung
SK-MEL-5 melanoma = system: SK-MEL-5 melanoma
U251 CNS = system: U251 CNS
M19-MEL melanoma = system: M19-MEL melanoma
LXFL 529 NSCLC = system: LXFL 529 NSCLC
HL-60(TB) leukemia = system: HL-60(TB) leukemia
SF-268 CNS = system: SF-268 CNS
IGROV1 ovarian = system: IGROV1 ovarian
HOP-92 NSCLC = system: HOP-92 NSCLC
HCT-116 colon = system: HCT-116 colon
HT29 colon = system: HT29 colon
UO-31 renal = system: UO-31 renal
CAKI-1 renal = system: CAKI-1 renal
A549 NSCLC = system: A549 NSCLC
SK-MEL-28 melanoma = system: SK-MEL-28 melanoma
DMS 114 small cell lung = system: DMS 114 small cell lung
DMS 273 small cell lung = system: DMS 273 small cell lung
MOLT-4 leukemia = system: MOLT-4 leukemia
HOP-62 NSCLC = system: HOP-62 NSCLC
786-0 renal = system: 786-0 renal
RXF 393 renal = system: RXF 393 renal
OVCAR-5 ovarian = system: OVCAR-5 ovarian
SNB-19 CNS = system: SNB-19 CNS
HCC-2998 colon = system: HCC-2998 colon
OVCAR-3 ovarian = system: OVCAR-3 ovarian
KM20L2 colon = system: KM20L2 colon
SNB-78 CNS = system: SNB-78 CNS
EKVX NSCLC = system: EKVX NSCLC

## Cc1nc2ccccc2c(=O)n1NC(=S)Nc1ccccc1
OVCAR-4 ovarian
  TGI: > 100 µM
SNB-75 CNS
  TGI: > 100 µM
SR leukemia
  TGI: > 100 µM
CCRF-CEM leukemia
  TGI: > 100 µM
SK-OV-3 ovarian
  TGI: > 100 µM
M14 melanoma
  TGI: > 100 µM
UACC-62 melanoma
  TGI: > 100 µM
SF-295 CNS
  TGI: > 100 µM
KM12 colon
  TGI: > 100 µM
HCT-15 colon
  TGI: > 100 µM
SN12C renal
  TGI: > 100 µM
SW-620 colon
  TGI: > 100 µM
COLO 205 colon
  TGI: > 100 µM
SK-MEL-2 melanoma
  TGI: > 100 µM
LOX IMVI melanoma
  TGI: > 100 µM
HOP-18 NSCLC
  TGI: > 100 µM
TK-10 renal
  TGI: > 100 µM
MALME-3M melanoma
  TGI: > 100 µM
DLD-1 colon
  TGI: > 100 µM
NCI-H522 lung
  TGI: > 100 µM
OVCAR-8 ovarian
  TGI: > 100 µM
ACHN renal
  TGI: > 100 µM
NCI-H226 lung
  TGI: > 100 µM
NCI-H23 lung
  TGI: > 100 µM
UACC-257 melanoma
  TGI: > 100 µM
SF-539 CNS
  TGI: > 100 µM
K-562 leukemia
  TGI: > 100 µM
RPMI-8226 leukemia
  TGI: > 100 µM
A498 renal
  TGI: > 100 µM
NCI-H460 lung
  TGI: > 100 µM
SK-MEL-5 melanoma
  TGI: > 100 µM
U251 CNS
  TGI: > 100 µM
M19-MEL melanoma
  TGI: > 100 µM
LXFL 529 NSCLC
  TGI: > 100 µM
HL-60(TB) leukemia
  TGI: > 100 µM
SF-268 CNS
  TGI: > 100 µM
IGROV1 ovarian
  TGI: > 100 µM
HOP-92 NSCLC
  TGI: > 100 µM
HCT-116 colon
  TGI: > 100 µM
HT29 colon
  TGI: > 100 µM
UO-31 renal
  TGI: > 100 µM
CAKI-1 renal
  TGI: > 100 µM
A549 NSCLC
  TGI: > 100 µM
SK-MEL-28 melanoma
  TGI: > 100 µM
DMS 114 small cell lung
  TGI: > 100 µM
DMS 273 small cell lung
  TGI: > 100 µM
MOLT-4 leukemia
  TGI: > 100 µM
HOP-62 NSCLC
  TGI: > 100 µM
786-0 renal
  TGI: > 100 µM
RXF 393 renal
  TGI: > 100 µM
OVCAR-5 ovarian
  TGI: > 100 µM

## CC(C1=CC=C2[C@@H]3CCC4CC(N(C)C)CC[C@]4(C)C3CC[C@]12C)N(C)C=O (stereo partly drawn)
OVCAR-4 ovarian
  TGI: > 100 µM
SNB-75 CNS
  TGI: > 100 µM
CCRF-CEM leukemia
  TGI: > 100 µM
SK-OV-3 ovarian
  TGI: > 100 µM
M14 melanoma
  TGI: > 100 µM
UACC-62 melanoma
  TGI: > 100 µM
SF-295 CNS
  TGI: > 100 µM
KM12 colon
  TGI: > 100 µM
HCT-15 colon
  TGI: > 100 µM
SN12C renal
  TGI: > 100 µM
SW-620 colon
  TGI: > 100 µM
COLO 205 colon
  TGI: > 100 µM
SK-MEL-2 melanoma
  TGI: > 100 µM
LOX IMVI melanoma
  TGI: > 100 µM
SNB-19 CNS
  TGI: > 100 µM
HOP-18 NSCLC
  TGI: > 100 µM
TK-10 renal
  TGI: > 100 µM
MALME-3M melanoma
  TGI: > 100 µM
DLD-1 colon
  TGI: > 100 µM
NCI-H522 lung
  TGI: > 100 µM
OVCAR-8 ovarian
  TGI: > 100 µM
ACHN renal
  TGI: > 100 µM
NCI-H23 lung
  TGI: > 100 µM
SF-539 CNS
  TGI: > 100 µM
K-562 leukemia
  TGI: > 100 µM
RPMI-8226 leukemia
  TGI: > 100 µM
A498 renal
  TGI: > 100 µM
SK-MEL-5 melanoma
  TGI: > 100 µM
U251 CNS
  TGI: > 100 µM
M19-MEL melanoma
  TGI: > 100 µM
LXFL 529 NSCLC
  TGI: > 100 µM
HL-60(TB) leukemia
  TGI: > 100 µM
SF-268 CNS
  TGI: > 100 µM
IGROV1 ovarian
  TGI: > 100 µM
HOP-92 NSCLC
  TGI: > 100 µM
HCT-116 colon
  TGI: > 100 µM
HT29 colon
  TGI: > 100 µM
UO-31 renal
  TGI: > 100 µM
CAKI-1 renal
  TGI: > 100 µM
A549 NSCLC
  TGI: > 100 µM
HCC-2998 colon
  TGI: > 100 µM
SK-MEL-28 melanoma
  TGI: > 100 µM
DMS 114 small cell lung
  TGI: > 100 µM
DMS 273 small cell lung
  TGI: > 100 µM
OVCAR-3 ovarian
  TGI: > 100 µM
MOLT-4 leukemia
  TGI: > 100 µM
HOP-62 NSCLC
  TGI: > 100 µM
786-0 renal
  TGI: > 100 µM
RXF 393 renal
  TGI: > 100 µM
OVCAR-5 ovarian
  TGI: > 100 µM

## CSc1nc(=Nc2ccccc2)sn1-c1ccccc1
OVCAR-4 ovarian
  TGI: 23.6 µM
SNB-75 CNS
  TGI: 55.8 µM
SR leukemia
  TGI: 81.1 µM
CCRF-CEM leukemia
  TGI: 40 µM
SK-OV-3 ovarian
  TGI: 62.2 µM
M14 melanoma
  TGI: 22.5 µM
UACC-62 melanoma
  TGI: 18 µM
SF-295 CNS
  TGI: 49.2 µM
KM12 colon
  TGI: 44.2 µM
HCT-15 colon
  TGI: 30.4 µM
SN12C renal
  TGI: 39 µM
SW-620 colon
  TGI: 26.1 µM
SK-MEL-2 melanoma
  TGI: 76.9 µM
KM20L2 colon
  TGI: 28.4 µM
LOX IMVI melanoma
  TGI: 32 µM
SNB-19 CNS
  TGI: 56.7 µM
TK-10 renal
  TGI: 60.5 µM
MALME-3M melanoma
  TGI: 99.1 µM
NCI-H522 lung
  TGI: 13.2 µM
OVCAR-8 ovarian
  TGI: 46.3 µM
ACHN renal
  TGI: 56 µM
NCI-H226 lung
  TGI: 36.2 µM
NCI-H23 lung
  TGI: 36 µM
UACC-257 melanoma
  TGI: 43.9 µM
SF-539 CNS
  TGI: 36.9 µM
K-562 leukemia
  TGI: 30.1 µM
RPMI-8226 leukemia
  TGI: 40.5 µM
A498 renal
  TGI: 38.7 µM
NCI-H460 lung
  TGI: 16.9 µM
SK-MEL-5 melanoma
  TGI: 23.2 µM
U251 CNS
  TGI: 33.4 µM
M19-MEL melanoma
  TGI: 23 µM
HL-60(TB) leukemia
  TGI: 22.6 µM
SF-268 CNS
  TGI: 54 µM
IGROV1 ovarian
  TGI: 40 µM
HCT-116 colon
  TGI: 32.5 µM
HT29 colon
  TGI: 11.8 µM
UO-31 renal
  TGI: 39.8 µM
CAKI-1 renal
  TGI: 35.1 µM
A549 NSCLC
  TGI: 44 µM
HCC-2998 colon
  TGI: 38.1 µM
SK-MEL-28 melanoma
  TGI: 30.2 µM
DMS 114 small cell lung
  TGI: 16.1 µM
DMS 273 small cell lung
  TGI: 22.8 µM
OVCAR-3 ovarian
  TGI: 38.5 µM
MOLT-4 leukemia
  TGI: 96 µM
SNB-78 CNS
  TGI: 47 µM
HOP-62 NSCLC
  TGI: 31.3 µM
786-0 renal
  TGI: 34.4 µM
RXF 393 renal
  TGI: 31.3 µM
EKVX NSCLC
  TGI: > 100 µM
OVCAR-5 ovarian
  TGI: 48 µM
